According to US6958346B2, “4-heteroaryl-tetrahydroquinolines and their use as inhibitors of the cholesterin-ester transfer protein” (Bayer Aktiengesellschaft, priority 1997, dated 2005):

Columns and labels:
[1] = biological target: T1, cholesterol ester transfer protein (CETP) (Homo sapiens, UniProt P11597); experiment: CETP inhibition test (transfer of 3H-cholesterol ester from human HDL to biotinylated LDL, SPA); assay type: biochemical; conditions: CETP partially purified from human plasma; 37° C., 18 h; concentration at which transfer is reduced by half
T1 construct: CETP is obtained in partially purified form from human plasma by differential centrifugation and column chromatography; from tissue; host or cells: human plasma
T1 sequence (P11597 18-493): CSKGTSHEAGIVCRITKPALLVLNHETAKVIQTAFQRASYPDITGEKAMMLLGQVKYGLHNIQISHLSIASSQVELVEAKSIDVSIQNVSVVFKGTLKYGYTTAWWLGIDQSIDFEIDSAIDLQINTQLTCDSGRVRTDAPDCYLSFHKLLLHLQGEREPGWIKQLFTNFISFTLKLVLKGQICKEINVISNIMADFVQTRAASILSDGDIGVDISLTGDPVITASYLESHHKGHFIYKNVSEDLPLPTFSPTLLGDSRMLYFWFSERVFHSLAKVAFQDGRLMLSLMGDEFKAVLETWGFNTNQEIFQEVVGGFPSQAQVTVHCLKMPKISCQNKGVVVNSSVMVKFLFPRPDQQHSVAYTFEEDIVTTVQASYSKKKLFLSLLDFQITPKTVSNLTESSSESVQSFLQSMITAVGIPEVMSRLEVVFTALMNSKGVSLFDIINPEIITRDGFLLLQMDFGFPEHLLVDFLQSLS
Procedure: CETP is obtained in partially purified form from human plasma by differential centrifugation and column chromatography and used for the test. For this purpose, human plasma is adjusted to a density of 1.21 g per ml using NaBr and centrifuged at 50,000 rpm at 4° C. for 18 h. The bottom fraction (d>1.21 g/ml) is applied to a Sephadex®Phenyl-Sepharose 4B (Pharmacia) column, washed with 0.15 m NaCl/0.001 m TrisHCl pH 7.4 and subsequently eluted using dist. water. The CETP-active fractions are pooled, dialysed against 50 mM Na-acetate pH 4.5 and applied to a CM-Sepharose® (Pharmacia) column. Elution is subsequently carried out using a linear gradient (0-1 M NaCl). The pooled CETP fractions are dialysed against 10 mM TrisHCl pH 7.4 and subsequently purified further by chromatography over a Mono Q® column (Pharmacia).
50 ml of fresh human EDTA plasma are adjusted to a density of 1.12 using NaBr and centrifuged at 4° C. in a Ty 65 rotor at 50,000 rpm for 18 h. The upper phase is used to obtain cold LDL. […]
To test the CETP activity, the transfer of ^3H-cholesterol ester from human HD-lipoproteins to biotinylated LD-lipoproteins is measured.
The reaction is terminated by addition of Streptavidin-SPA® beads (Amersham) and the transferred radioactivity is directly determined in a liquid scintillation counter. […]

| SMILES | IC50 [1] | melting point |
| --- | --- | --- |
| CC1(C)CC(=O)c2c(nc(C3CCCC3)c(C(=O)c3ccc(C(F)(F)F)cc3)c2-c2ccsc2)C1 [Example 1, 2-Cyclopentyl-7,7-dimethyl-4-(3-thienyl)-3-(4-trifluoromethylbenzoyl)-5,6,7,8-tetrahydro-quinolin-5-one] | 0.01 µM |  |
| CC1(C)CC(=O)c2c(nc(C3CCCC3)c(C(=O)c3ccc(C(F)(F)F)cc3)c2-c2ccncc2)C1 [Example 2] |  | 221 to 224 °C |
| CC1(C)CC(=O)c2c(nc(C3CCCC3)c(C(=O)c3ccc(C(F)(F)F)cc3)c2C2CCCCC2)C1 [Example 3] |  | 185 to 186 °C |
